Results taken from patent publication US7507739B2, “6-[(substituted)phenyl]triazolopyrimidines as anticancer agents” (Wyeth, priority 2003, dated 2009).

How the values were obtained:
S1 cells = assay: MTS cytotoxicity test with S1 cells; assay type: cell-based; details: Homo sapiens
Excerpt: Human cancer cell lines, unless otherwise noted, are obtained from the American Type Culture Collection (Rockville, Md.). The following drug-sensitive parental cell lines, and their derived drug-resistant counterparts, are obtained from the originators as listed: (a) S1 (parental line from a subclone of human colon carcinoma line LS174T) and derived S1-M1-3.2 (herein called S1-M1) which expresses the MXR drug transporter protein, are provided by Dr. L. Greenberger, Wyeth Research (Rabindran, S. K., He, H., Singh, M., Brown, E., Collins, K. I., Annable, T., and Greenberger, L. M. Reversal of a novel multidrug resistance mechanism in human colon carcinoma cells by fumitremorgin C. Cancer Res., 58:5850-5858,1998); (b) parental HL-60 human promyelocytic leukemia line and derived HL-60/ADR, which expresses the MRP1 drug transporter protein, are provided by Dr. M. Center, University of Kansas (McGrath, T., and Center, M. S. Adriamycin resistance in HL60 cells in the absence of detectable P-glycoprotein. Biochem. Biophys. […] J. Biol. Chem., 261: 7762-7770,1986) via Dr. L. Greenberger, Wyeth Research.
The assay, which is sold in kit form by Promega (Madison, Wis.; CellTiter 96 AQueous Non-Radioactive Cell Proliferation Assay), is based on the conversion by viable cells, but not by dead cells, of the tetrazolium salt, MTS (3-(4,5-dimethylthiazol-2-yl)-5-(3-carboxymethoxyphenyl)-2-(4-sulphophenyl)-2H-tetrazolium, inner salt), into a water-soluble colored formazan which is detected by spectrophotometry. Compounds are tested at nine concentrations, in order to determine IC50 values. For the test procedure, cells are harvested by trypsinization (or, in the case of non-adherent cells, by simple resuspension), washed, counted and distributed to wells of 96-well flat-bottom microtiter plates at 1000 cells per well in 200 μL of medium. In addition, one row of wells on a separate plate received cells as above (“time 0” plate). All plates are incubated at 37° in humidified 5% CO2 in air for about 24 hr.
On day 2, compounds for test are diluted and added to wells. Compounds are dissolved in DMSO at 10 mg/mL. For each compound, nine serial 2-fold dilutions are prepared in DMSO. Ten μL of each dilution in DMSO is transferred to 100 μL of medium, mixed well, and then 5 μL of this dilution is transferred in quadruplicate to wells containing cells. […] Plates are returned to the incubator for three days. At the time of drug addition to the experimental plates, the MTS assay is run on the “time 0” plate. This produced the “time 0 MTS value” which is related to the number of viable cells per well at the time of drug addition.
After three days of culture with test compounds (day 5 overall), the MTS assay is done on all wells of the experimental plates. The absorbance values of the quadruplicate sample wells are averaged and divided by the average of the “time 0” values. […] The nine values for each compound are plotted against concentration, and the concentration that produced a relative color yield half way between the maximum and minimum is taken as the IC50 value.
S1-M1 cells overexpress the MXR transporter which mediates resistance to some chemotherapeutics (Gottesman, M. M., Fojo, T., and Bates, S. E. Miltidrug resistance in cancer: role of ATP-dependent transporters. Nature Rev. Cancer, 2: 48-58, 2002). The IC50 values of representative examples of this invention, as well as reference compounds, on S1-M1 are compared to values on the sensitive parental S1 line.

microtubules = assay: Competitive binding test, [3H]paclitaxel; parameters: species or system bovine; details: [3H]paclitaxel 2.1 μM, competitor 20 μM (5 μM for unlabeled paclitaxel)
Experimental: Medium is RPMI-1640 with L-glutamine, supplemented with 10% heat-inactivated fetal calf serum, 100 units/ml penicillin, and 100 μg/ml streptomycin (Gibco, Grand Island, N.Y.). Microtubule-associated protein (MAP)-rich tubulin, containing about 70% tubulin and 30% MAPs (#ML113), and highly purified tubulin (>99% pure, #TL238), both from bovine brain, are obtained from Cytoskeleton, Inc., Denver, Colo. PEM buffer (80 mM piperazine-N,N′-bis[2-ethanesulfonic acid], pH 6.9, 1 mM ethylene glycol-bis(β-aminoethyl ether)-N,N,N′,N′-tetraacetic acid, 1 mM magnesium chloride) and guanosine 5′-triphosphate (GTP) are also obtained from Cytoskeleton. [3H]paclitaxel, specific activity 14.7 Ci/mmol, is purchased from Moravek Biochemicals (Brea, Calif.). [^3H]vinblastine, specific activity 9.60 Ci/mmol and MicroSpin G-50 columns are obtained from Amersham Biosciences (Piscataway, N.J.). […] Other reagents are obtained from Sigma (St. Louis, Mo.).
The binding of examples of this invention to highly purified tubulin is studied by competitive inhibition methods. […] To study possible competition at the taxane site, on the other hand, polymerized tubulin (microtubules) is used because paclitaxel binds preferentially to microtubules.
For competition with [^3H]paclitaxel, highly purified tubulin is dissolved in PEM buffer containing 0.75 M glutamate and 25 μM dideoxy-GTP; final protein concentration is 0.25 to 0.35 mg/mL (2.5 to 3.5 μM). These conditions foster the rapid formation of short, stable microtubule polymers (Hamel, E., del Campo, A. A., and Lin, C. M. Stability of tubulin polymers formed with dideoxyguanosine nucleotides in the presence and absence of microtubule-associated proteins. J. Biol. Chem., 259: 2501-2508, 1984). This solution is incubated for 30 min at 37° to allow microtubules to form. Then [^3H]paclitaxel (final concentration of 2.1 μM, 1.2 Ci/mmol) and competitor (final concentration of 20 μM, except 5 μM for unlabeled paclitaxel) are added to aliquots of the polymerized tubulin solution and incubation at 37° is continued for another 30 min. […] The reactions are then centrifuged at top speed in an Eppendorf 5415C microfuge for 20 min at room temperature in order to pellet the microtubule protein. Triplicate aliquots of each supernatant are mixed with scintillation fluid and counted in a liquid scintillation spectrometer. From the amount of radioactivity in the supernatants and the measured total starting radioactivity, the amount of [^3H]paclitaxel bound to pelleted microtubule protein is calculated. The ability of each competitor to inhibit radioligand binding to pelleted protein is expressed as a percent of controls without any competitor.

[3H]Paclitaxel binding, percent of control without competitor, Mean (microtubules) [%]	Structure (SMILES)	IC50 (S1 cells) [nM]
104	C[C@H](Nc1c(-c2c(F)cc(OCCCO)cc2F)c(Cl)nc2ncnn12)C(F)(F)F [Example 20, 3-[4-(5-Chloro-7-{[(1S)-2,2,2-trifluoro-1-methylethyl]amino}[1,2,4]triazolo[1,5-a]pyrimidin-6-yl)-3,5-difluorophenoxy]propan-1-ol]	85
99	C[C@H](Nc1c(-c2c(F)cc(OCCCN(C)C)cc2F)c(Br)nc2ncnn12)C(F)(F)F [Example 25, 5-Bromo-6-{4-[3-(dimethylamino)propoxy]-2,6-difluorophenyl}-N-[(1S)-2,2,2-trifluoro-1-methylethyl][1,2,4]triazolo[1,5-a]pyrimidin-7-amine]	106
91	OCCCOc1cc(F)c(-c2c(Cl)nc3ncnn3c2C2CCCCCC2)c(F)c1 [Example 30, 3-[4-(5-Chloro-7-cycloheptyl[1,2,4]triazolo[1,5-a]pyrimidin-6-yl)-3,5-difluorophenoxy]propan-1-ol]	66
93	CNCCCOc1cc(F)c(-c2c(Cl)nc3ncnn3c2C2CCCCCC2)c(F)c1.O=C(O)C(F)(F)F [Example 32, 3-[4-(5-Chloro-7-cycloheptyl[1,2,4]triazolo[1,5-a]pyrimidin-6-yl)-3,5-difluorophenoxy]-N-methylpropan-1-amine trifluoroacetic acid salt]	11
35	CC(=O)O[C@H]1C(=O)[C@@]2(C)[C@H]([C@H](OC(=O)c3ccccc3)[C@]3(O)C[C@H](OC(=O)[C@H](O)[C@@H](NC(=O)c4ccccc4)c4ccccc4)C(C)=C1C3(C)C)[C@]1(OC(C)=O)CO[C@@H]1C[C@@H]2O [Paclitaxel, reference compound]	8.1
22	CC[C@]1(O)C[C@H]2CN(CCc3c([nH]c4ccccc34)[C@@](C(=O)OC)(c3cc4c(cc3OC)N(C=O)[C@H]3[C@@](O)(C(=O)OC)[C@H](OC(C)=O)[C@]5(CC)C=CCN6CC[C@]43[C@@H]65)C2)C1 [Vincristine, reference compound]	5.6

Structure (SMILES)	[3H]Paclitaxel binding, percent of control without competitor, Mean (microtubules) [%]	IC50 (S1 cells) [nM]
C[C@H](Nc1c(-c2c(F)cc(OCCCN(C)C)cc2F)c(Cl)nc2ncnn12)C(F)(F)F.Cl [Example 1a, 5-chloro-6-{4-[3-(dimethylamino)propoxy]-2,6-difluorophenyl}-N-[(1S)-2,2,2-trifluoro-1-methylethyl][1,2,4]triazolo[1,5-a]pyrimidin-7-amine hydrogen chloride Salt]	108	73
CNCCCOc1cc(F)c(-c2c(Cl)nc3ncnn3c2N[C@@H](C)C(F)(F)F)c(F)c1.Cl [Example 2a, 5-Chloro-6-{2,6-difluoro-4-[3-(methylamino)propoxy]phenyl}-N-[(1S)-2,2,2-trifluoro-1-methylethyl][1,2,4]triazolo[1,5-a]pyrimidin-7-amine hydrogen chloride]	104	70
CNCCCOc1cc(F)c(-c2c(Cl)nc3ncnn3c2NCC(F)(F)F)c(F)c1.Cl [Example 3a, 5-Chloro-6-{2,6-difluoro-4-[3-(methylamino)propoxy]phenyl}-N-(2,2,2-trifluoroethyl)[1,2,4]triazolo[1,5-a]pyrimidin-7-amine hydrogen chloride Salt]	105	61
CN(C)CCCOc1cc(F)c(-c2c(Cl)nc3ncnn3c2NCC(F)(F)F)c(F)c1.Cl [Example 4a, 5-Chloro-6-{4-[3-(dimethylamino)propoxy]-2,6-difluorophenyl}-N-(2,2,2-trifluoroethyl)[1,2,4]triazolo[1,5-a]pyrimidin-7-amine Hydrogen chloride Salt]	104	72
